Literature values in patent US20130252334A1, “METHOD OF USING TET-INDUCIBLE TRANSGENES” (UNIVERSITY OF ROCHESTER, priority 2010, published 2013).

Experiments:
tet repressor = tet repressor (Escherichia coli, UniProt P04483); details: relative to tetracycline; Zhu et al. 2007; cited from earlier work
rtTA = details: compared to Dox; Zhu et al. 2007; cited from earlier work
[1] = versus other related compounds; cited from earlier work

tet repressor, sequence (P04483 whole entry): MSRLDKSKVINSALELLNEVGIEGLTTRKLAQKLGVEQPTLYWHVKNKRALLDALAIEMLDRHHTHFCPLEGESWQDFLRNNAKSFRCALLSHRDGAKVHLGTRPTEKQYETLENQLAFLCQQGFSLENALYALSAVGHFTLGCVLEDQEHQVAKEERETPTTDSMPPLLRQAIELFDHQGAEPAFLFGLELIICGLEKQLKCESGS

For `C[C@H]1c2ccc(C(C)(C)C)c(O)c2C(O)=C2C(=O)[C@]3(O)C(O)=C(C(N)=O)C(=O)[C@@H](N(C)C)[C@@H]3[C@@H](O)[C@@H]21` [9-TB, 9-t-butyl doxycycline], the “binding affinity on the tet repressor, fold higher” value (tet repressor) is listed as 10 fold, the “potency in activating transcription from the rtTA” value (rtTA) is listed as 10 times and the hydrophobicity/lipophilicity [1] is listed as “much more hydrophobic/lipophylic than other related compounds”.
